# Assay results from patent publication US20080280994A1, “Ascophyllum Compositions and Methods” (OCEAN NUTRITION CANDA LTD., priority 2004, published 2008).
# Tests used:
# [1] = test system: STZ-diabetic mice; assay: Sucrose challenge in diabetic mice; assay type: in vivo
# Protocol: Animal model. Mice were made diabetic as described above and were allotted to eight groups (10 animals per group) as follows: […] Treatment and Measurement. Test samples were prepared at appropriate concentrations so that the required doses were delivered in a volume of 0.2 mL/20 g body weight. Acarbose was also dissolved in 0.5% CMC ([…]) and given at a dose of 25 mg/kg BW. Ten minutes after gavaging of samples, blood was sampled from tail vein for glucose measurement (Time 0). The animals were then gavaged with sucrose (20% in water at a dose of 2 g/kg body weight). […] A group of non-diabetic mice were given an equivalent volume of saline (0.2 ml/20 g BW).
# [2] = test system: STZ-diabetic mice (KunMing strain); assay: 4-week treatment study in streptozotocin-induced diabetic mice; assay type: in vivo
# Protocol: Animal Model. […] Diabetes was induced in mice with a single injection of streptozotocin (STZ). After fasting for 12 hrs, male mice with body weight above 20 g were given STZ dissolved in sodium citrate buffer via tail vein at a dose of 110 mg/kg body weight. […] Diabetic animals were divided into 5 groups (10 mice per group). Of these, 3 groups were treated with test samples, one group was a control group, receiving vehicle alone, and one group received metformin, an oral anti-diabetic agent. A sixth group, consisting of non-diabetic mice, was also included for comparison. They were treated with vehicle alone. Mice were housed 5 to a cage with free access to food and water. Test Samples and Dose. A. nodosum samples tested were as follows: 1) crude extract, CE 2) polyphenolic fraction, PPF 3) polysaccharide fraction, PSF Samples were dissolved in carboxymethylcellulose (CMC; 0.5%). Test sample solutions were prepared every morning at a concentration of 20 mg/ml in distilled water and given via gavage at a volume of 0.2 mL/20 g BW to deliver a dose of 200 mg/kg body weight. The control groups were gavaged with distilled water (0.2 mL/20 g BW). […] Animals were treated daily for 4 weeks. Measurements.
# [3] = sucrose challenge, acarbose-treated mice
# [4] = STZ-diabetic mice, Day 28, dose 200 mg/kg, mean ± S.D.
# [5] = STZ-diabetic mice, daily gavage, printed dose 200 mg/kg, mean ± S.D.
smiles,measurement,setting,value
"C[C@H]1O[C@H](O[C@H]2[C@H](O)[C@@H](O)[C@@H](O[C@H]3[C@H](O)[C@@H](O)C(O)O[C@@H]3CO)O[C@@H]2CO)[C@H](O)[C@@H](O)[C@@H]1N[C@H]1C=C(CO)[C@@H](O)[C@H](O)[C@H]1O (stereo partly drawn) [Acarbose, acarbose]","serum glucose level, 0 min","[1]; sucrose challenge 2 g/kg, dose 25 mg/kg, 0 min",15.64 ± 2.6 mmol/L
same,"serum glucose level, 10 min","[1]; sucrose challenge 2 g/kg, dose 25 mg/kg, 10 min",21.71 ± 3.6 mmol/L
same,"serum glucose level, 30 min","[1]; sucrose challenge 2 g/kg, dose 25 mg/kg, 30 min",24.67 ± 4.1 mmol/L
same,"serum glucose level, 60 min","[1]; sucrose challenge 2 g/kg, dose 25 mg/kg, 60 min",19.80 ± 4.8 mmol/L
same,"serum glucose level, 120 min","[1]; sucrose challenge 2 g/kg, dose 25 mg/kg, 120 min",14.29 ± 2.9 mmol/L
same,area-under-the-curve (AUC) for glucose,[1]; [3],2340 units (mmol/L×120 min.)
same,reduction of glucose AUC versus STZ-mice,[1]; [3],33%
"CN(C)C(=N)N=C(N)N [Metformin, metformin]",serum glucose versus STZ-diabetic mice (in words),"[2]; 4-week treatment, P<0.05",significantly lower serum glucose at each of the time points
same,blood total antioxidant level (in words),[2]; Day 28,significant increases in antioxidant activity
same,glycated Hb versus STZ-diabetic mice (in words),[2]; Day 28,reduced
same,total cholesterol versus STZ-diabetic mice (in words),[2]; Day 28,reduced
same,liver glycogen level (in words),"[2]; Day 28, STZ-diabetic mice",significantly increased liver glycogen level
same,AntIoxidant activity (U/ml serum),[2]; [4],8.15 ± 1.8 U/ml serum
same,Glycated Hb,[2]; [4],5.22 ± 0.5 mmol/L
same,Liver glycogen (mg/g wet tissue),[2]; [4],5.51 ± 0.8 mg/g wet tissue
same,Total Cholesterol,[2]; [4],1.93 ± 0.7 mmol/L
same,Blood glucose (mM) Day 7,[2]; [5],13.04 ± 5.8 mM
same,Blood glucose (mM) Day 14,[2]; [5],11.60 ± 4.1 mM
same,Blood glucose (mM) Day 21,[2]; [5],12.38 ± 4.7 mM
same,Blood glucose (mM) Day 28,[2]; [5],13.59 ± 7.7 mM
same,Blood glucose (mM) Day 0,"[2]; STZ-diabetic mice, start of treatment period, mean ± S.D.",13.50 ± 2.5 mM
